The source of these data is PubChem BioAssay (NCI).

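Test compounds were applied to cells in 96-well plates for 48 hours at 5 doses. GI50 is the concentration that inhibits growth by half. TGI denotes the concentration required for complete inhibition of growth.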

Assay in all cases: NCI tumour cell line growth inhibition, 48 h
Assay [1] concerns NCI-H226 lung.
The test system of assay [2] is RXF 393 renal.
The test system of assay [3] is HOP-92 NSCLC.
For assay [4], the system named is A549 NSCLC.
Assay [5] relates to SK-MEL-5 melanoma.
The test system of assay [6] is NCI-H460 lung.
Assay [7] has as its system HL-60(TB) leukemia.
Assay [8] concerns SNB-75 CNS.
In assay [9] the test system is CCRF-CEM leukemia.
The test system of assay [10] is HCC-2998 colon.

In the case of `CC1(C)OC2COC3(CNO)OC(C)(C)OC3C2O1` (stereo not given), the TGI in [1], in assay [2], in assay [3], in assay [4], in [5] and in assay [6] was over 100 µM each time. Also, the TGI is 30.2 µM in assay [7], over 100 µM in [8], over 100 µM in [9] and over 100 µM in assay [10].

For the compound `COc1ccc(-c2nnc(N3CCN(C(=O)CN4CCN(c5ccc(OC)cc5)CC4)CC3)nc2-c2ccc(OC)cc2)cc1`, the GI50 in [1] was 5.53 µM; in assay [2], 5.38 µM; in [3] it was 16.1 µM; in [4], 25.6 µM; in assay [5], 2.4 µM; in assay [6], 15.4 µM. The GI50 was 1.88 µM in assay [7], 15.6 µM in assay [8], 3.02 µM in [9] and 18.8 µM in assay [10]. Moreover, the TGI was 34.5 µM in assay [1]; 38.8 µM in assay [2]; 35.2 µM in [3]; over 100 µM in [4]; 6.83 µM in [5]; over 62.3 µM in assay [6]. Also, the TGI was 6.5 µM in assay [7], 44.8 µM in [8], 6.06 µM in assay [9] and 47.2 µM in assay [10].

For the compound `C[C@H](Cn1ncnn1)Nc1ncc2cc(Oc3ccc(F)cc3F)c(=O)n(C)c2n1`, the GI50 was over 25 µM in assay [1]; over 25 µM in assay [2]; 3.96 µM in assay [3]; over 25 µM in [4]; over 25 µM in assay [5]; over 25 µM in assay [6]. Also, the GI50 in [7], in assay [8], in [9] and in assay [10] was over 25 µM each time. Besides, the TGI in assay [1], in [2], in assay [3], in assay [4], in assay [5] and in assay [6] was over 25 µM each time. The TGI in assay [7], in assay [8], in assay [9] and in assay [10] was over 25 µM throughout.

Regarding `OB1OCc2cc(/C=C/c3cccc(C(F)(F)F)c3)ccc21`, the GI50 in [1] was 2.52 µM; in assay [2], 2.23 µM; in assay [3] it was 0.712 µM; in assay [4], 0.695 µM; in assay [5], 2.05 µM; in assay [6], 0.48 µM. The GI50 is 0.298 µM in assay [7], 0.852 µM in assay [8], 0.459 µM in assay [9] and 2.54 µM in assay [10]. For the same compound, the TGI in assay [1] worked out at 56.4 µM; in assay [2] it was 11.4 µM; in [3], 10.7 µM; in [4], 19.6 µM; in assay [5], 81.4 µM; in [6] it was 22.8 µM. In addition, the TGI was 5.38 µM in assay [7], 6.2 µM in [8], 33.7 µM in assay [9] and over 100 µM in [10].

For `Cc1cc(Nc2nc(SCc3ccc(C(=O)Nc4ccc(F)cc4N)cc3)nn3cccc23)n[nH]1`, the GI50 in [1] is 2.7 µM; in assay [2], 0.301 µM; in [3] it was 3.68 µM; in [4] it was 0.886 µM; in [5], 0.334 µM; in assay [6] it was 0.395 µM. The GI50 in [7] was 0.268 µM; in [8], 0.198 µM; in assay [9] it was 0.411 µM; in [10] it was 0.677 µM. Moreover, the TGI in assay [1] is 20.5 µM; in assay [2], 13 µM; in assay [3], 24.3 µM; in [4], 36.8 µM; in [5], 2.43 µM; in [6], over 100 µM. Moreover, the TGI in assay [7] was 0.785 µM; in assay [8], 35.4 µM; in assay [9], over 100 µM; in assay [10] it was 11.5 µM.
